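Following 48 hours of exposure in 96-well plates, responses at five concentrations were used to interpolate endpoints linearly. Here, GI50 denotes the concentration required for 50% inhibition of growth.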 Active and inactive are the calls of the source. Cut-off read from the data, not from the text of the source: active = GI50 up to about 1.1 µM and inactive = higher.
Tests used:
Test in all cases: growth of human tumour cells (NCI), 48 h
[1] = tested on: UACC-257
[2] = tested on: KM-20L2
[3] = tested on: M19-MEL
[4] = tested on: DLD-1
[5] = tested on: DMS-114
[6] = tested on: HOP-18
[7] = tested on: SNB-78

Compound	GI50 [1]	GI50 [2]	GI50 [3]	GI50 [4]	GI50 [5]	GI50 [6]	GI50 [7]
O=C(O)C1(Cc2ccccc2)Cc2ccccc2C1	> 100 µM (inactive)						
CC12CCC3=C(CSC4=C3CSc3ccccc34)C1=CCCC2=O (stereo unspecified)		51.6 µM (inactive)	86.9 µM (inactive)	29.4 µM (inactive)	69.5 µM (inactive)	39.3 µM (inactive)	
CCCO/N=[N+](\[O-])N(CC)CC	> 100 µM (inactive)	> 100 µM (inactive)					> 100 µM (inactive)
Cc1c(/N=C/C=C/c2ccccc2)c(=O)n(-c2ccccc2)n1C	45.3 µM (inactive)						
CN(C)CCCNC(=O)c1cccc2ccccc12	> 100 µM (inactive)		> 10 µM (inactive)	> 100 µM (inactive)	> 100 µM (inactive)		> 100 µM (inactive)
C[N+](C)(CCCCCC[N+](C)(C)CCCN1C(=O)c2cccc3cccc(c23)C1=O)CCCN1C(=O)c2cccc3cccc(c23)C1=O	> 100 µM (inactive)						
